27 compounds from patent US9221796B2, “Selective NR2B antagonists” (BRISTOL-MYERS SQUIBB COMPANY, priority 2014, dated 2015) can be followed below.

As a reminder, the Ki is a dissociation constant, usually derived from enzyme kinetics or from competition with a known ligand.

The target of one experiment is NR2B-subtype NMDA receptors (Rattus norvegicus (Rat), UniProt P35439+Q00960). Put plainly: Radioligand binding assay (3H Ro 25-6981 competition, forebrain membranes). The note with it: 3H Ro 25-6981 (4 nM), read-out: NR2B Binding Ki. An outline of the steps: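 Rat forebrain membranes competed against [3H]Ro 25-6981 for 1 hr at room temperature, then filtered onto PEI-treated GF/B plates and counted by scintillation. CPM converted to % inhibition, concentration-response curves fitted, Ki derived from at least two experiments.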
Chain of NR2B-subtype NMDA receptors (Q00960 27-1482, other chains not shown): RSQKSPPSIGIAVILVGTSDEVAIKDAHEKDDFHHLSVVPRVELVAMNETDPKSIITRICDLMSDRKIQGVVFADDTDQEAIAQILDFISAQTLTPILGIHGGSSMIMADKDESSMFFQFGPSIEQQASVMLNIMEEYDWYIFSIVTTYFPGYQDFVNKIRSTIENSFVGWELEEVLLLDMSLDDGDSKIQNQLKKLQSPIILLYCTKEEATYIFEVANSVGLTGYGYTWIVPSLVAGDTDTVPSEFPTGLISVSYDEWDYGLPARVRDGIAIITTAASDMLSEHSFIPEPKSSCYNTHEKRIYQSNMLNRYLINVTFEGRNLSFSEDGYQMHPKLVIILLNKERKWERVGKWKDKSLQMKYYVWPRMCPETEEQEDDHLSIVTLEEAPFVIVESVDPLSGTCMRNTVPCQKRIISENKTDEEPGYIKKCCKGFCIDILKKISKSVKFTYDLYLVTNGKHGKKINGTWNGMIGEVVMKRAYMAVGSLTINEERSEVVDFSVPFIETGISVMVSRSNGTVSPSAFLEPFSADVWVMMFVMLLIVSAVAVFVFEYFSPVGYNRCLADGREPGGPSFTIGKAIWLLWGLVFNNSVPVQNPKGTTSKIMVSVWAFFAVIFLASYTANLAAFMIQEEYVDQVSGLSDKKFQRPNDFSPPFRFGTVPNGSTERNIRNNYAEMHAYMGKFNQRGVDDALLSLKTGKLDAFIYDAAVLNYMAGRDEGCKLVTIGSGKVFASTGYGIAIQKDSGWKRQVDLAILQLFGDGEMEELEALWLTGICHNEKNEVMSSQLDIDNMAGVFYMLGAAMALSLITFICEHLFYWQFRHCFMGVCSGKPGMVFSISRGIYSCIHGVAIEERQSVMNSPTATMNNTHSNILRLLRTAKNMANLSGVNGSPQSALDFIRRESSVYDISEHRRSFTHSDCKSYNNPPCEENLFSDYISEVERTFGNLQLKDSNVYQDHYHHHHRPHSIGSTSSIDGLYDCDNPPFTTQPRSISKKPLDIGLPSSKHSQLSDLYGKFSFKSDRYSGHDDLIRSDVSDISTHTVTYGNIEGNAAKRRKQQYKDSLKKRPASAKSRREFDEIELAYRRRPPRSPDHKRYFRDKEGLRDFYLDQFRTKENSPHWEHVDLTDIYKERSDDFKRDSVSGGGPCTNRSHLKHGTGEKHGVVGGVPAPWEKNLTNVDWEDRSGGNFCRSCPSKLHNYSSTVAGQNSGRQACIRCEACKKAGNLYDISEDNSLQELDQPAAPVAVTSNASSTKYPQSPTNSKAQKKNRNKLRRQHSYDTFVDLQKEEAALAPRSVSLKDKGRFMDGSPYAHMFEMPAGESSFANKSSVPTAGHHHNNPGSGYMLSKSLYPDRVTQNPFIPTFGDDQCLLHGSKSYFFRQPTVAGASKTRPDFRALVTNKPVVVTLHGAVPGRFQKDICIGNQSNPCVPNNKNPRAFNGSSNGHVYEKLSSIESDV
Turning to `O=C1C(N2CCC(c3ccc(O)cc3)CC2)CCN1Cc1ccc(F)cc1` (racemic) [Example 1, 1-(4-Fluorobenzyl)-3-(4-(4-hydroxyphenyl)piperidin-1-yl)pyrrolidin-2-one], the Ki came out at 3 nM.
Same read-out and setting: in the case of `O=C1C(N2CCCC(c3ccc(O)cc3)CC2)CCN1Cc1ccc(F)cc1` (centres unmarked) [Example 35, 1-(4-Fluorobenzyl)-3-(4-(4-hydroxyphenyl)azepan-1-yl)pyrrolidin-2-one] it was 17 nM; in that of `O=C1C(N2CCCC(c3ccc(O)cc3)C2)CCCN1Cc1ccc(Cl)cc1` (centres unmarked) [Example 42, 1′-(4-Chlorobenzyl)-3-(4-hydroxyphenyl)-[1,3′-bipiperidin]-2′-one], 720 nM; in that of `O=C1[C@@H](N2CC[C@H](c3ccc(O)cc3)[C@@H](F)C2)CCN1Cc1ccccc1` [Example 74, (S)-1-Benzyl-3-((3R,4R)-3-fluoro-4-(4-hydroxyphenyl)piperidin-1-yl)pyrrolidin-2-one], 680 nM.
Regarding `O=C1C(N2CCC(c3ccc(O)cc3)CC2)CCN1Cc1ccc(Cl)c(F)c1` (centres unmarked) [Example 15, 1-(4-Chloro-3-fluorobenzyl)-3-(4-(4-hydroxyphenyl)piperidin-1-yl)pyrrolidin-2-one], the Ki was determined as 12 nM.
Same read-out and setting: in the case of `O=C1[C@@H](N2CC[C@H](c3ccc(O)cc3)[C@@H](F)C2)CCN1Cc1ccc(Cl)cc1` [Example 80, (S)-1-(4-Chlorobenzyl)-3-((3R,4R)-3-fluoro-4-(4-hydroxyphenyl)piperidin-1-yl)pyrrolidin-2-one] it was 560 nM; in that of `O=C1[C@@H](N2CC[C@@H](c3ccc(O)cc3)[C@H](F)C2)CCN1Cc1ccc(Cl)cc1` [Example 64, (S)-1-(4-Chlorobenzyl)-3-((3S,4S)-3-fluoro-4-(4-hydroxyphenyl)piperidin-1-yl)pyrrolidin-2-one], 490 nM; in that of `Cc1ccc(CN2CC[C@H](N3CC(c4ccc(O)cc4)C3)C2=O)cc1` [Example 28a, (S)-3-(3-(4-Hydroxyphenyl)azetidin-1-yl)-1-(4-methylbenzyl)pyrrolidin-2-one], 420 nM.
Take `C[C@@H](c1ccc(F)cc1)N1CCC(N2CCC(c3ccc(O)cc3)C(F)(F)C2)C1=O` (single isomer, unassigned) [Example 56, P-4]: the Ki came out at 660 nM.
Turning to `O=C1[C@@H](N2CC[C@@H](c3ccc(O)cc3)[C@H](F)C2)CCN1Cc1ccccc1` [Example 57, (S)-1-Benzyl-3-((3S,4S)-3-fluoro-4-(4-hydroxyphenyl)piperidin-1-yl)pyrrolidin-2-one], the Ki was determined as 490 nM.
On to `Cc1ccc(CN2CCC(N3CC(c4ccc(O)cc4)C3)C2=O)cc1` (centres unmarked) [Example 27, 3-(3-(4-Hydroxyphenyl)azetidin-1-yl)-1-(4-methylbenzyl)pyrrolidin-2-one], for which the Ki is 20 nM.
The same measure, in the same setting: in the case of `O=C1C(N2CCCC(c3ccc(O)cc3)C2)CCN1Cc1ccc(F)cc1` (centres unmarked) [Example 4, 1-(4-Fluorobenzyl)-3-(3-(4-hydroxyphenyl)piperidin-1-yl)pyrrolidin-2-one] it was not below 5000 nM.
Still for that read-out and setting: in the case of `O=C1C(N2CCC(c3ccc(O)cc3)C(F)(F)C2)CCN1Cc1ccc(C(F)(F)F)cc1` (stereo in doubt) [Example 99, P-2, (3S)-3-(3,3-Difluoro-4-(4-hydroxyphenyl)piperidin-1-yl)-1-(4-(trifluoromethyl)benzyl)-pyrrolidin-2-one] it was 22 nM.
Regarding `C[C@@H](c1ccc(F)cc1)N1CCC(N2CCC(c3ccc(O)cc3)C(F)(F)C2)C1=O` (single isomer, unassigned) [Example 56, P-1], the Ki was not below 5000 nM.
Same read-out and setting: under `Cc1cccc(CN2CCC(N3CCC(c4ccc(O)cc4)C(F)(F)C3)C2=O)c1` (centres unmarked) [Example 104, 3-(3,3-Difluoro-4-(4-hydroxyphenyl)piperidin-1-yl)-1-(3-methylbenzyl)pyrrolidin-2-one] stands 130 nM.
With `O=C1C(N2CCC(c3ccc(O)cc3)C(F)(F)C2)CCN1Cc1ccc(F)c(Cl)c1` (centres unmarked) [Example 111, 1-(3-Chloro-4-fluorobenzyl)-3-(3,3-difluoro-4-(4-hydroxyphenyl)piperidin-1-yl)pyrrolidin-2-one], the inhibition constant Ki amounted to 590 nM.
Still for that read-out and setting: under `O=C1[C@@H](N2CCC(c3ccc(O)cc3)C(F)(F)C2)CCN1Cc1ccc(C(F)(F)F)cc1` (single isomer, unassigned) [Example 99, P-1] stands 380 nM; under `O=C1[C@H](N2CCC(c3ccc(O)cc3)C(F)(F)C2)CCN1Cc1ccccc1` (stereo partly drawn) [Example 102, P-2, (3R)-1-Benzyl-3-(3,3-difluoro-4-(4-hydroxyphenyl)piperidin-1-yl)pyrrolidin-2-one], 30 nM.
Same read-out and setting: in the case of `O=C1C(N2CC(c3ccc(O)cc3)C2)CCN1Cc1ccc(F)c(F)c1` (centres unmarked) [Example 10, 1-(3,4-Difluorobenzyl)-3-(3-(4-hydroxyphenyl)azetidin-1-yl)pyrrolidin-2-one] it was 1020 nM.
Same read-out and setting: under `Cc1ccc(CN2CCC(N3CCC(c4ccc(O)cc4)CC3)C2=O)cc1C` (centres unmarked) [Example 26, 1-(3,4-Dimethylbenzyl)-3-(4-(4-hydroxyphenyl)piperidin-1-yl)pyrrolidin-2-one] stands 31 nM.
Turning to `C[C@@H](c1ccccc1)N1CCC(N2CC[C@H](c3ccc(O)cc3)[C@@H](F)C2)C1=O` (stereo partly drawn) [Example 84, 3-((3R,4R)-3-Fluoro-4-(4-hydroxyphenyl)piperidin-1-yl)-1-((S)-1-phenylethyl)pyrrolidin-2-one], the Ki was determined as 950 nM.
On the same count and under the same terms, in the case of `O=C1[C@H](N2CCC(c3ccc(O)cc3)CC2)CCN1Cc1ccc(O)cc1` [Example 25b, (R)-1-(4-Hydroxybenzyl)-3-(4-(4-hydroxyphenyl)piperidin-1-yl)pyrrolidin-2-one] it was 5.3 nM.
Still for that read-out and setting: under `Cc1ccc(CN2CC[C@H](N3CC[C@@H](c4ccc(O)c(F)c4)[C@H](F)C3)C2=O)cc1F` [Example 45, P-1, (S)-3-((3S,4S)-3-fluoro-4-(3-fluoro-4-hydroxyphenyl)piperidin-1-yl)-1-(3-fluoro-4-methylbenzyl)pyrrolidin-2-one] stands 260 nM; under `Cc1ccc(CN2CCC(N3CCCC(c4ccc(O)cc4)CC3)C2=O)cc1` (centres unmarked) [Example 36, 3-(4-(4-Hydroxyphenyl)azepan-1-yl)-1-(4-methylbenzyl)-pyrrolidin-2-one], 34 nM.
Still for that read-out and setting: under `O=C1[C@@H](N2CCC(c3ccc(O)cc3)CC2)CCN1Cc1ccc(O)cc1` [Example 25a, (S)-1-(4-Hydroxybenzyl)-3-(4-(4-hydroxyphenyl)piperidin-1-yl)pyrrolidin-2-one] stands 1200 nM; under `Cc1ccc(CN2CC[C@@H](N3CC[C@@H](c4ccc(O)c(F)c4)[C@H](F)C3)C2=O)cc1` [Example 115, (R)-3-((3S,4S)-3-fluoro-4-(3-fluoro-4-hydroxyphenyl)piperidin-1-yl)-1-(4-methylbenzyl)pyrrolidin-2-one], 2.7 nM; under `O=C1C(N2CC[C@H](c3ccc(O)cc3)[C@@H](F)C2)CCN1Cc1ccc(Cl)c(Cl)c1` (stereo partly drawn) [Example 86, 1-(3,4-Dichlorobenzyl)-3-((3R,4R)-3-fluoro-4-(4-hydroxyphenyl)-piperidin-1-yl)pyrrolidin-2-one], 78 nM.

The same experiment, now with this note: 3H Ro 25-6981 (4 nM), read-out: binding Ki.
Take `O=C1C(N2CCC(c3ccc(O)cc3)CC2)CCN1Cc1ccc(F)cc1` (racemic) [Example 1, 1-(4-Fluorobenzyl)-3-(4-(4-hydroxyphenyl)piperidin-1-yl)pyrrolidin-2-one]: the Ki was found to be 4 nM.

The target in a further experiment is NR2B-subtype receptors (Mus musculus (Mouse), UniProt P35438+Q01097). Put plainly: Ex vivo occupancy assay. The experiment is classed as in vivo. The note with it: mice, after i.v. dosing. On the procedure: 7-9 weeks old male CD-1 mice were dosed intravenously in a vehicle consisting of 10% dimethylacetamide, 40% PEG-400, […], and 30% water with experimental compounds and the forebrains were harvested 15 minutes […] by decapitation. The brain samples were immediately snap-frozen and stored at −80° C. On the following day, the dosed brain samples were thawed on ice for 15-20 minutes followed by homogenization using Polytron for 10 seconds in cold homogenization buffer composed of 50 mM KH2PO4 (pH adjusted to 7.4 with KOH), 1 mM EDTA, 0.005% Triton X 100 and protease inhibitor cocktail (Sigma Aldrich). The crude homogenates were further homogenized using a Dounce homogenizer and the homogenized membrane aliquots from all animals were flash-frozen and stored at −80° C. until further use. The whole homogenization process was performed on ice.
Chain of NR2B-subtype receptors (Q01097 27-1482, other chains not shown): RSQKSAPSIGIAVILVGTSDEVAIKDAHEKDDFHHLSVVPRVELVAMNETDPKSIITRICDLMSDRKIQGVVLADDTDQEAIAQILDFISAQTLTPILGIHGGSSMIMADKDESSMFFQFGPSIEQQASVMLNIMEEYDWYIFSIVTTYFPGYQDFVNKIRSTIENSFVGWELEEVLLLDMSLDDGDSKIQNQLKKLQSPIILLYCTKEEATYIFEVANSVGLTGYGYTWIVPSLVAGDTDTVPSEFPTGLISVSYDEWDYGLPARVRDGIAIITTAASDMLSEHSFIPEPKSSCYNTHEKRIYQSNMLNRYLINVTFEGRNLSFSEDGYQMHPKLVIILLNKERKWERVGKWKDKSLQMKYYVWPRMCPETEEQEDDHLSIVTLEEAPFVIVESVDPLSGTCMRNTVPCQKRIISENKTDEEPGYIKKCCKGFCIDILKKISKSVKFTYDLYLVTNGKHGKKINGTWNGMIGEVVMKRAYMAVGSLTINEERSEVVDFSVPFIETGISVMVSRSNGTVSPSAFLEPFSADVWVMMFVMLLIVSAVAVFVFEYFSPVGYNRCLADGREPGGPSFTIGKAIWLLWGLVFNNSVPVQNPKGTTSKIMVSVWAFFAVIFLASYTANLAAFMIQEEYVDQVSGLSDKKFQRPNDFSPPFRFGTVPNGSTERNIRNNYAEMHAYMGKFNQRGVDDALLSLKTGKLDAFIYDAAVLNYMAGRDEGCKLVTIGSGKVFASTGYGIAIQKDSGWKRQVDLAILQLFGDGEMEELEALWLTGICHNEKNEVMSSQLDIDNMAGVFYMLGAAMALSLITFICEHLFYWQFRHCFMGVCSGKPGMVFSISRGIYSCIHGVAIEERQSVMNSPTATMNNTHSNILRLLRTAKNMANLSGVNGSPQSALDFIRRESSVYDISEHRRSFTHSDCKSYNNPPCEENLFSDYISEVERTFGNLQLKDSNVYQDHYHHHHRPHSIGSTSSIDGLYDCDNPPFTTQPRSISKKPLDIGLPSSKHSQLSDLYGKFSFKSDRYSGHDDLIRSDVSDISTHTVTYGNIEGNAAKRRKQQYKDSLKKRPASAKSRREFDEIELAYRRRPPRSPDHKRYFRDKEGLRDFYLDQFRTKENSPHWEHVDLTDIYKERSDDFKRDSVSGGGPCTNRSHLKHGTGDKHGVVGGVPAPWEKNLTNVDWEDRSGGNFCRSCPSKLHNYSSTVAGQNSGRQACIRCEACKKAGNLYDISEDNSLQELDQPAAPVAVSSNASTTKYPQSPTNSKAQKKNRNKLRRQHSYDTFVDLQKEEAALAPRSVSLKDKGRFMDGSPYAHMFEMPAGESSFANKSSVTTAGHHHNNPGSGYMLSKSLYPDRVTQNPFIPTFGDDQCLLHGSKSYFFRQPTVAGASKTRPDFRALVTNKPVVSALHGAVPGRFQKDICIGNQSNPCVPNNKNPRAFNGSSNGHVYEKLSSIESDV
For determining occupancy, the membrane homogenates were first thawed on ice and then needle-homogenized using a 25 gauge needle. The homogenized membrane (6.4 mg/ml) was added to a 96-well plate followed by addition of ^3H Ro 25-6981 (6 nM). […] The filter plates were dried at 50° C. for 20 mins, incubated with microscint 20 for 10 minutes and read on TopCount (Perkin Elmer). […] Non-specific binding was determined using 10 μM Ro 25-6981 added to the wells containing membrane homogenates from vehicle-dosed animals. […]
With `O=C1C(N2CCC(c3ccc(O)cc3)CC2)CCN1Cc1ccc(F)cc1` (racemic) [Example 1, 1-(4-Fluorobenzyl)-3-(4-(4-hydroxyphenyl)piperidin-1-yl)pyrrolidin-2-one], the “occupancy of brain-resident NR2B-subtype receptors (in words)” value is listed as “occupies brain-resident NR2B-subtype receptors”.
